Test [1] deals with Limosilactobacillus reuteri GOLDGUT-LR99. Nature of the test: Antibiotic sensitivity, K-B method (Kirby-Bauer method). In kind it is cell-based. Conditions: susceptibility of the strain to the antibiotic. Details: key to Antibiotic susceptibility test result: R represents resistance; S represents sensitivity. How it is done: Antibiotic sensitivity of Limosilactobacillus reuteri GOLDGUT-LR99 was determined using the K-B method (Kirby-Bauer method).

Test [2] has the same test system. Nature of the test: Carbon source utilization and oxidation experiment (AN Biolog micro-pore plate). The test is classed as cell-based. Conditions: substrate utilization by the strain, 37° C. anaerobic culture for 24 hours. The method, then:
The AN Biolog micro-pore plate was used for measuring the utilization and oxidation conditions of different carbon sources of Limosilactobacillus reuteri GOLDGUT-LR99, the AN microplate used nutrients and biochemical reagents, and the method included the following steps: 1 mL of Limosilactobacillus reuteri GOLDGUT-LR99 bacterial liquid of the strain to be detected at the end of logarithmic growth was pipetted and centrifuged, then the supernatant was removed, the cells was washed three times with the seed liquid and suspended with 1 mL of the seed liquid, 50 μL of the suspension was taken and diluted in 10 mL of the seed liquid, the diluent was subpacked in a Biolog plate (100 μL/pore) after mixing uniformly, and the Biolog plate with the diluent was placed in 37° C. for anaerobic culture for 24 hours. After the culture was finished, OD590 and OD750 were detected by using microplate reader, the numerical values were recorded, and the utilization conditions of carbohydrate, organic acid and other substances of the Limosilactobacillus reuteri GOLDGUT-LR99 were calculated, wherein the calculation method was as follows: Y=OD590−OD750;

As for `CC1(C)S[C@@H]2[C@H](NC(=O)[C@H](N)c3ccccc3)C(=O)N2[C@H]1C(=O)O` [Ampicillin], in test [1], the “Antibiotic susceptibility test result” value was “S” and the “antibiotic sensitivity (in words)” value is listed as “sensitive”.

As for `CC1(C)S[C@@H]2[C@H](NC(=O)Cc3ccccc3)C(=O)N2[C@H]1C(=O)O` [Benzylpenicillin], the “Antibiotic susceptibility test result” value in test [1] was “S”.

For `CC1(C)S[C@@H]2[C@H](NC(=O)C(C(=O)O)c3ccccc3)C(=O)N2[C@H]1C(=O)O` (stereo partly drawn) [Carbenicillin], the “Antibiotic susceptibility test result” value in test [1] is given as “S”.

On to `Cc1nnc(SCC2=C(C(=O)O)N3C(=O)[C@@H](NC(=O)Cn4cnnn4)[C@H]3SC2)s1` [Cefazolin], for which, in test [1], the “Antibiotic susceptibility test result” value is reported as “S”.

With `CCN1CCN(C(=O)N[C@@H](C(=O)N[C@@H]2C(=O)N3C(C(=O)O)=C(CSc4nnnn4C)CS[C@H]23)c2ccc(O)cc2)C(=O)C1=O` [Cefperazone], the “Antibiotic susceptibility test result” value in test [1] is on record as “S”.

For `CC1=C(C(=O)O)N2C(=O)[C@@H](NC(=O)[C@H](N)C3=CCC=CC3)[C@H]2SC1` [Cefradine], the “Antibiotic susceptibility test result” value in test [1] is given as “S”.

With `CC(C)(O/N=C(\C(=O)N[C@@H]1C(=O)N2C(C(=O)[O-])=C(C[n+]3ccccc3)CS[C@H]12)c1csc(N)n1)C(=O)O` [Ceftazidime], in test [1], the “Antibiotic susceptibility test result” value is given as “S”.

`CO/N=C(\C(=O)N[C@@H]1C(=O)N2C(C(=O)O)=C(CSc3nc(=O)c(=O)[nH]n3C)CS[C@H]12)c1csc(N)n1` [Ceftriaxone]: in test [1], the “Antibiotic susceptibility test result” value is recorded as “S”.

Consider `CO/N=C(\C(=O)N[C@@H]1C(=O)N2C(C(=O)O)=C(COC(N)=O)CS[C@H]12)c1ccco1` [Cefuroxime], for which the “Antibiotic susceptibility test result” value in test [1] was “S”.

As to `CC1=C(C(=O)O)N2C(=O)[C@@H](NC(=O)[C@H](N)c3ccccc3)[C@H]2SC1` [Cephalexin], the “Antibiotic susceptibility test result” value in test [1] is “S”.

Take `O=C(N[C@H](CO)[C@H](O)c1ccc([N+](=O)[O-])cc1)C(Cl)Cl` [Chloramphenicol]: in test [1], the “Antibiotic susceptibility test result” value was “S”.

In the case of `O=C(O)c1cn(C2CC2)c2cc(N3CCNCC3)c(F)cc2c1=O` [Ciprofloxacin], in test [1], the “Antibiotic susceptibility test result” value was “R”.

As to `CCC[C@@H]1C[C@@H](C(=O)N[C@@H]([C@H]2O[C@H](SC)[C@H](O)[C@@H](O)[C@H]2O)[C@H](C)Cl)N(C)C1` [Clindamycin], the “Antibiotic susceptibility test result” value in test [1] was “R”.

For the molecule `C[C@H]1c2cccc(O)c2C(=O)C2=C(O)[C@]3(O)C(=O)C(C(N)=O)=C(O)[C@@H](N(C)C)[C@@H]3[C@@H](O)[C@@H]21` [Doxycycline], the “Antibiotic susceptibility test result” value in test [1] is reported as “S”.

As for `CC[C@H]1OC(=O)[C@H](C)[C@@H](O[C@H]2C[C@@](C)(OC)[C@@H](O)[C@H](C)O2)[C@H](C)[C@@H](O[C@@H]2O[C@H](C)C[C@H](N(C)C)[C@H]2O)[C@](C)(O)C[C@@H](C)C(=O)[C@H](C)[C@@H](O)[C@]1(C)O` [Erythromycin], the “Antibiotic susceptibility test result” value in test [1] is listed as “R”.

For `O=C1OCCN1/N=C/c1ccc([N+](=O)[O-])o1` [Furazolidone], the “Antibiotic susceptibility test result” value in test [1] is listed as “S”.

For `NC[C@H]1O[C@H](O[C@H]2[C@H](O)[C@@H](O[C@H]3O[C@H](CO)[C@@H](O)[C@H](N)[C@H]3O)[C@H](N)C[C@@H]2N)[C@H](O)[C@@H](O)[C@@H]1O` [Kanamycin], the “Antibiotic susceptibility test result” value in test [1] was “S”.

`CCC(=O)O[C@@H]1CC(=O)O[C@H](C)C/C=C/C=C/[C@H](O)[C@H](C)C[C@H](CC=O)[C@H](O[C@@H]2O[C@H](C)[C@@H](O[C@H]3C[C@@](C)(O)[C@@H](OC(=O)CC)[C@H](C)O3)[C@H](N(C)C)[C@H]2O)[C@H]1OC` [Midecamycin]: the “Antibiotic susceptibility test result” value in test [1] was “R”.

With `CN(C)c1ccc(O)c2c1C[C@H]1C[C@H]3[C@H](N(C)C)C(O)=C(C(N)=O)C(=O)[C@@]3(O)C(O)=C1C2=O` [Minocycline], the “Antibiotic susceptibility test result” value in test [1] is recorded as “S”.

For `CCn1cc(C(=O)O)c(=O)c2cc(F)c(N3CCNCC3)cc21` [Norfloxacin], in test [1], the “Antibiotic susceptibility test result” value is on record as “R”.

Regarding `CC1COc2c(N3CCN(C)CC3)c(F)cc3c(=O)c(C(=O)O)cn1c23` (stereo not drawn) [Ofloxacin], in test [1], the “Antibiotic susceptibility test result” value was “R”.

Consider `CCN1CCN(C(=O)N[C@@H](C(=O)N[C@@H]2C(=O)N3[C@@H]2SC(C)(C)[C@@H]3C(=O)O)c2ccccc2)C(=O)C1=O` [Piperacillin], for which the “Antibiotic susceptibility test result” value in test [1] is on record as “S”.

In the case of `Cc1cc(NS(=O)(=O)c2ccc(N)cc2)no1` [Sulfamethoxazole, Compound Sulfamethoxazole], in test [1], the “Antibiotic susceptibility test result” value is listed as “R”.

In the case of `CN(C)[C@@H]1C(O)=C(C(N)=O)C(=O)[C@@]2(O)C(O)=C3C(=O)c4c(O)cccc4[C@@](C)(O)[C@H]3C[C@@H]12` [Tetracycline], in test [1], the “Antibiotic susceptibility test result” value is “S”.

As for `CN[C@H](CC(C)C)C(=O)N[C@H]1C(=O)N[C@@H](CC(N)=O)C(=O)N[C@H]2C(=O)N[C@H]3C(=O)N[C@H](C(=O)N[C@H](C(=O)O)c4cc(O)cc(O)c4-c4cc3ccc4O)[C@H](O)c3ccc(c(Cl)c3)Oc3cc2cc(c3O[C@@H]2O[C@H](CO)[C@@H](O)[C@H](O)[C@H]2O[C@H]2C[C@](C)(N)[C@H](O)[C@H](C)O2)Oc2ccc(cc2Cl)[C@H]1O` [Vancomycin], the “Antibiotic susceptibility test result” value in test [1] is given as “R”.

As to `COC1OC(CO)C(O)C(O)C1O` [α-Methyl-D-galactoside], the “Utilization (Y=OD590−OD750)” value in test [2] is on record as “− (when Y < 0.05, it is shown that the strain was not able to utilize this substance, marked as −)”.

Take `CO[C@H]1O[C@H](CO)[C@@H](O)[C@H](O)[C@H]1O` [α-Methyl-D-glucoside]: in test [2], the “Utilization (Y=OD590−OD750)” value was “− (when Y < 0.05, it is shown that the strain was not able to utilize this substance, marked as −)”.

Consider `OC[C@H]1O[C@@H]2O[C@H]3[C@H](O)[C@@H](O)[C@@H](O[C@H]4[C@H](O)[C@@H](O)[C@@H](O[C@H]5[C@H](O)[C@@H](O)[C@@H](O[C@H]6[C@H](O)[C@@H](O)[C@@H](O[C@H]7[C@H](O)[C@@H](O)[C@@H](O[C@H]8[C@H](O)[C@@H](O)[C@@H](O[C@H]1[C@H](O)[C@H]2O)O[C@@H]8CO)O[C@@H]7CO)O[C@@H]6CO)O[C@@H]5CO)O[C@@H]4CO)O[C@@H]3CO` [β-Cyclodextrin], for which the “Utilization (Y=OD590−OD750)” value in test [2] is “− (when Y < 0.05, it is shown that the strain was not able to utilize this substance, marked as −)”.

As to `CC(O)CC(=O)O` (stereo not drawn) [β-Hydroxybutyric acid], in test [2], the “Utilization (Y=OD590−OD750)” value is given as “− (when Y < 0.05, it is shown that the strain was not able to utilize this substance, marked as −)”.

Take `CO[C@@H]1O[C@H](CO)[C@@H](O)[C@H](O)[C@H]1O` [β-Methyl-D-galactoside]: in test [2], the “Utilization (Y=OD590−OD750)” value is “− (when Y < 0.05, it is shown that the strain was not able to utilize this substance, marked as −)”.

For the molecule `CO[C@@H]1O[C@H](CO)[C@@H](O)[C@H](O)[C@H]1O` [β-Methyl-D-glucoside], the “Utilization (Y=OD590−OD750)” value in test [2] is “− (when Y < 0.05, it is shown that the strain was not able to utilize this substance, marked as −)”.

For D-Aminoglucuronate, the “Utilization (Y=OD590−OD750)” value in test [2] was “++ (when Y > 0.1, it is shown that the strain was able to effectively utilize this substance, marked as++)”.

With Dextrin, the “Utilization (Y=OD590−OD750)” value in test [2] is given as “− (when Y < 0.05, it is shown that the strain was not able to utilize this substance, marked as −)”.

Consider Gentamicin, for which the “Antibiotic susceptibility test result” value in test [1] is given as “S”.

As to Glycine-L-aspartic acid, the “Utilization (Y=OD590−OD750)” value in test [2] is listed as “− (when Y < 0.05, it is shown that the strain was not able to utilize this substance, marked as −)”.

On to Hexanediol, for which the “Utilization (Y=OD590−OD750)” value in test [2] was “− (when Y < 0.05, it is shown that the strain was not able to utilize this substance, marked as −)”.

Turning to L-Alanyl-L-M-glutamate, the “Utilization (Y=OD590−OD750)” value in test [2] was “− (when Y < 0.05, it is shown that the strain was not able to utilize this substance, marked as −)”.

As for L-Alanyl-L-M-threonine, in test [2], the “Utilization (Y=OD590−OD750)” value is “− (when Y < 0.05, it is shown that the strain was not able to utilize this substance, marked as −)”.

For the molecule L-Asparagine acid, the “Utilization (Y=OD590−OD750)” value in test [2] is “+ (when 0.1 > Y > 0.05, it is shown that the strain was able to better utilize this substance, marked as +)”.

Take L-Glutamate salt: the “Utilization (Y=OD590−OD750)” value in test [2] is recorded as “− (when Y < 0.05, it is shown that the strain was not able to utilize this substance, marked as −)”.

L-Uracilic acid: in test [2], the “Utilization (Y=OD590−OD750)” value is listed as “− (when Y < 0.05, it is shown that the strain was not able to utilize this substance, marked as −)”.

As to L-Valine + L-M-Aspartamid acid, the “Utilization (Y=OD590−OD750)” value in test [2] was “− (when Y < 0.05, it is shown that the strain was not able to utilize this substance, marked as −)”.

With Maltotriose, the “Utilization (Y=OD590−OD750)” value in test [2] is given as “++ (when Y > 0.1, it is shown that the strain was able to effectively utilize this substance, marked as++)”.

Turning to Neomycin, in test [1], the “Antibiotic susceptibility test result” value is reported as “S”.

As for Penicillin, the “Antibiotic susceptibility test result” value in test [1] is listed as “S”.

Polymyxin: the “Antibiotic susceptibility test result” value in test [1] is listed as “R”.

In the case of α-Succinic acid, the “Utilization (Y=OD590−OD750)” value in test [2] was “− (when Y < 0.05, it is shown that the strain was not able to utilize this substance, marked as −)”.

The values are drawn from patent publication US20250222044A1, “LIMOSILACTOBACILLUS REUTERI GOLDGUT-LR99 AND APPLICATION THEREOF” (priority 2024, published 2025).
